Assay results reported in US20240150377A1, “MODULATORS OF CYSTIC FIBROSIS TRANSMEMBRANE CONDUCTANCE REGULATOR” (VERTEX PHARMACEUTICALS INCORPORATED, priority 2020, published 2024).
Read-outs that look alike come from different tables or passages of the source.

Assays:
[1] = amide bond, 13-membered ring
CFTR [2] = biological target: T1, CFTR (Homo sapiens, UniProt P13569); assay: Membrane potential dye, Enteroid Assay B; type: cell-based; conditions: for EC50: read-out: Ent. B EC50; for Ent. B Max Activity: chloride transport as % of triple combination control (Enteroid Assay B)
T1 sequence (P13569 with tags, fused parts or gaps DEL508-508): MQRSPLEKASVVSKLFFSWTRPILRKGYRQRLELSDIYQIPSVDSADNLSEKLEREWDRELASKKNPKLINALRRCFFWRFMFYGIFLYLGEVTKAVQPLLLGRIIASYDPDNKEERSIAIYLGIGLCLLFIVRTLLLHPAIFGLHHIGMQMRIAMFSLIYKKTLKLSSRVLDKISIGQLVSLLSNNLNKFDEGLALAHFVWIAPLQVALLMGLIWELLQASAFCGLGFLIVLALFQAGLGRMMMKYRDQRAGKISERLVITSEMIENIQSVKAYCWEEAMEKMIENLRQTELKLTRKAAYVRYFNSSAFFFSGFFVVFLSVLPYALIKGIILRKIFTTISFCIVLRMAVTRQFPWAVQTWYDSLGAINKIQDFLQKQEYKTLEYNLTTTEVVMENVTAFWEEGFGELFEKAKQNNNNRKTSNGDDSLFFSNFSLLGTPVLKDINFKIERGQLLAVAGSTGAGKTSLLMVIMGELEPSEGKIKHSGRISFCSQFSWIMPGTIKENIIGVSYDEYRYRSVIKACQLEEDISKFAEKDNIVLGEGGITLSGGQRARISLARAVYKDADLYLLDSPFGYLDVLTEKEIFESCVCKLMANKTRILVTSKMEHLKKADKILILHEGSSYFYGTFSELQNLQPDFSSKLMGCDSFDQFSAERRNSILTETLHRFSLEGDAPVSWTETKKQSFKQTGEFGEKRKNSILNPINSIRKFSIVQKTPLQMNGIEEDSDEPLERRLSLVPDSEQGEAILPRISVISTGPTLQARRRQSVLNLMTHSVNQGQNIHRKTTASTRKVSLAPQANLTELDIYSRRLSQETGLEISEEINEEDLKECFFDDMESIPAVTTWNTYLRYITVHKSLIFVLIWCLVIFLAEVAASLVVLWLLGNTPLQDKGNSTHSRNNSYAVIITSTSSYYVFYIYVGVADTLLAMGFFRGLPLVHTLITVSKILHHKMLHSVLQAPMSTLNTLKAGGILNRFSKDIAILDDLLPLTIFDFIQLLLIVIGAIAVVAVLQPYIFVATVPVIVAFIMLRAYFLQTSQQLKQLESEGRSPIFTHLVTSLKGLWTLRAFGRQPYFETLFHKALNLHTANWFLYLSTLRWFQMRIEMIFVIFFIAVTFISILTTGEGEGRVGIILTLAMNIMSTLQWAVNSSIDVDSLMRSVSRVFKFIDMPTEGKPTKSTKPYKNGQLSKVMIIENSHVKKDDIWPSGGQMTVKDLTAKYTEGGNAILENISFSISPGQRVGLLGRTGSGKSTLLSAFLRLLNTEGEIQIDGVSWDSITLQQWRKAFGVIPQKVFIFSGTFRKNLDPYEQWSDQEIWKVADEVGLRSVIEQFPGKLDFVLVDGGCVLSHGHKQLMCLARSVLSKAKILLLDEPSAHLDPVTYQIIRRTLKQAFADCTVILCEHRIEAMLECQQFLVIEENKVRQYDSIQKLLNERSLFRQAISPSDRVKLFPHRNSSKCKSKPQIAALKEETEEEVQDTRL
Method in brief: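 Human intestinal enteroids were treated with compound in maintenance medium for 18-24 h at 37° C, then loaded with methyl oxonol membrane-potential dye (25 min, room temperature). Chloride transport was triggered in chloride-free buffer with 10 μM forskolin, 100 μM IBMX and 300 nM Compound III, fluorescence read 15 min; expressed as % of triple-combination control.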

CFTR [3] = biological target: T1, CFTR; assay: Membrane potential dye, Enteroid Assay A; type: cell-based; conditions: for Ent. A Max Activity: chloride transport as % of triple combination control (Enteroid Assay A); for EC50: human enteroid cells, 18-24 hours, acute 10 μM forskolin and 300 nM ivacaftor, read-out: Ent. A EC50
Method in brief: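 Human intestinal enteroids incubated 18-24 h at 37 °C with test compound, then loaded with 20 μM methyl oxonol (with CaCC inhibitors). Chloride transport triggered in chloride-free buffer with 10 μM forskolin, 100 μM IBMX, 300 nM Compound III; fluorescence read 15 min, expressed as % of a triple-combination corrector/potentiator control.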

[4] = Table 8, human enteroid cells, 18-24 hours, acute 10 μM forskolin and 300 nM ivacaftor

Question: With `Cc1cccc(C)c1-c1cc2nc(n1)NS(=O)(=O)c1cccc(c1)C(=O)N(Cc1ccc(N3CCOCC3)cn1)[C@H](CC(C)(C)C)CO2` [Compound 48, (11R)-6-(2,6-Dimethylphenyl)-11-(2,2-dimethylpropyl)-12-[(5-morpholino-2-pyridyl)methyl]-2,2-dioxo-9-oxa-2λ^6-thia-3,5,12,19-tetrazatricyclo[12.3.1.14,8]nonadeca-1(18),4(19),5,7,14,16-hexaen-13-one] as the compound, how does the ring closure, yield after HPLC ([1]; from Cc1cccc(C)c1-c1cc(OC[C@@H](CC(C)(C)C)NCc2ccc(N3CCOCC3)cn2)nc(NS(=O)(=O)c2cccc(C(=O)O)c2)n1, CDMT/NMM, DMF, 16.9 mM, 25.0 °C, 2.33 h, 2 steps) read?
Answer: Its ring closure, yield after HPLC is 22%.

Question: And the “Ent. B Max Activity (%)” value (CFTR [2]; Table 9)?
Answer: Its value is “+++ (+++ is >600%)”.

Question: What about the EC50 (CFTR [2]; Table 9) of the same compound?
Answer: Its EC50 is under 1000 nM.

Question: What does the source list for `Cc1cccc(C)c1-c1cc2nc(n1)NS(=O)(=O)c1cccc(n1)C(=O)N(Cc1ncccn1)[C@H](CC(C)(C)C)CO2` [Compound 75, (11R)-6-(2,6-dimethylphenyl)-11-(2,2-dimethylpropyl)-12-[(pyrimidin-2-yl)methyl]-9-oxa-2λ^6-thia-3,5,12,18,19-pentaazatricyclo[12.3.1.14,8]nonadeca-1(18),4(19),5,7,14,16-hexaene-2,2,13-trione]?
Answer: ring closure, yield after HPLC ([1]; from Cc1cccc(C)c1-c1cc(OC[C@@H](CC(C)(C)C)NCc2ncccn2)nc(NS(=O)(=O)c2cccc(C(=O)O)n2)n1, HATU/DIEA, DMF, 30.5 mM, 25.0 °C, 0.5 h): 46%; Ent. B Max Activity (CFTR [2]; Table 8): +++ (+++ is >60%); EC50 (CFTR [2]; [4]): < 1000 nM

Question: For `Cc1cccc(C)c1-c1cc2nc(n1)NS(=O)(=O)c1cccc(c1)C(=O)N(Cc1cn(C)nc1C(C)(C)C)[C@H](CC(C)C)CO2` [Compound 83, (11R)-12-[(3-tert-Butyl-1-methyl-pyrazol-4-yl)methyl]-6-(2,6-dimethylphenyl)-11-isobutyl-2,2-dioxo-9-oxa-2λ^6-thia-3,5,12,19-tetrazatricyclo[12.3.1.14,8]nonadeca-1(18),4(19),5,7,14,16-hexaen-13-one], which ring closure, yield after HPLC ([1]; from Cc1cccc(C)c1-c1cc(OC[C@@H](CC(C)C)NCc2cn(C)nc2C(C)(C)C)nc(NS(=O)(=O)c2cccc(C(=O)O)c2)n1, HATU/DIEA, DMF, 20.4 mM, 25.0 °C, 18.0 h) is on record?
Answer: The ring closure, yield after HPLC was 32%.

Question: What about the “Ent. A Max Activity” value (CFTR [3]; Table 7) of the same compound?
Answer: The value was “+++ (+++ is >60%)”.

Question: And the EC50 (CFTR [3]; Table 7)?
Answer: The EC50 was under 1000 nM.

Question: Which results are given for `COCCCCN1C(=O)c2cccc(c2)S(=O)(=O)Nc2nc(cc(-c3c(C)cccc3C)n2)OC[C@H]1CC(C)C` [Compound 84, (11R)-6-(2,6-dimethylphenyl)-11-isobutyl-12-(4-methoxybutyl)-2,2-dioxo-9-oxa-2λ^6-thia-3,5,12,19-tetrazatricyclo[12.3.1.14,8]nonadeca-1(18),4(19),5,7,14,16-hexaen-13-one]?
Answer: ring closure, yield after HPLC ([1]; from COCCCCN[C@@H](COc1cc(-c2c(C)cccc2C)nc(NS(=O)(=O)c2cccc(C(=O)O)c2)n1)CC(C)C, NaOtBu then HATU, THF, 98.4 mM, 25.0 °C, 1.0 h, 2 steps): 9%; Ent. A Max Activity (CFTR [3]; Table 7): +++ (+++ is >60%); EC50 (CFTR [3]; Table 7): < 1000 nM; Ent. B Max Activity (CFTR [2]; Table 7): +++ (+++ is >60%); EC50 (CFTR [2]; Table 7, human enteroid cells, 18-24 hours, acute 10 μM forskolin and 300 nM ivacaftor): < 1000 nM

Question: Which ring closure, yield after HPLC ([1]; from CNCC(Oc1cc(-c2c(C)cccc2C)nc(NS(=O)(=O)c2cccc(C(=O)O)c2)n1)c1ccc(C(C)(C)C)cn1, HATU/DIEA, DMF, 10.5 mM, 25.0 °C, 0.083 h, 2 steps) does the source give for `Cc1cccc(C)c1-c1cc2nc(n1)NS(=O)(=O)c1cccc(c1)C(=O)N(C)CC(c1ccc(C(C)(C)C)cn1)O2` (centres unmarked) [Compound 101, 10-(5-tert-butyl-2-pyridyl)-6-(2,6-dimethylphenyl)-12-methyl-2,2-dioxo-9-oxa-2λ^6-thia-3,5,12,19-tetrazatricyclo[12.3.1.14,8]nonadeca-1(18),4(19),5,7,14,16-hexaen-13-one] here?
Answer: Its ring closure, yield after HPLC is 55%.

Question: What about the “Ent. A Max Activity” value (CFTR [3]; Table 6) of the same compound?
Answer: The value was “+++ (+++ is >60%)”.

Question: And the EC50 (CFTR [3]; Table 6)?
Answer: Its EC50 is under 1000 nM.

Question: Which ring closure, yield after HPLC ([1]; from Cc1cccc(C)c1-c1cc(OC[C@@H](CC(C)(C)C)NCc2ncccn2)nc(NS(=O)(=O)c2cccc(C(=O)O)c2)n1, COMU/DIEA, DMF, 28.1 mM, 25.0 °C, 6.0 h) does the source give for `Cc1cccc(C)c1-c1cc2nc(n1)NS(=O)(=O)c1cccc(c1)C(=O)N(Cc1ncccn1)[C@H](CC(C)(C)C)CO2` [Compound 113, (11R)-6-(2,6-Dimethylphenyl)-11-(2,2-dimethylpropyl)-12-[(pyrimidin-2-yl)methyl]-9-oxa-2λ^6-thia-3,5,12,19-tetraazatricyclo[12.3.1.14,8]nonadeca-1(17),4(19),5,7,14(18),15-hexaene-2,2,13-trione] here?
Answer: The ring closure, yield after HPLC was 33%.

Question: What about the “Ent. B Max Activity” value (CFTR [2]; Table 8) of the same compound?
Answer: The value was “+++ (+++ is >60%)”.

Question: And the EC50 (CFTR [2]; [4])?
Answer: The EC50 was under 1000 nM.

Question: For `Cc1cccc(C)c1-c1cc2nc(n1)NS(=O)(=O)c1cccc(c1)C(=O)N(Cc1cccnn1)[C@H](CC(C)(C)C)CO2` [Compound 135, (11R)-6-(2,6-dimethylphenyl)-11-(2,2-dimethylpropyl)-12-[(pyridazin-3-yl)methyl]-9-oxa-2λ^6-thia-3,5,12,19-tetraazatricyclo[12.3.1.14,8]nonadeca-1(18),4,6,8(19),14,16-hexaene-2,2,13-trione], which ring closure, yield after HPLC ([1]; from Cc1cccc(C)c1-c1cc(OC[C@@H](CC(C)(C)C)NCc2cccnn2)nc(NS(=O)(=O)c2cccc(C(=O)O)c2)n1, COMU/DIEA, DMF, 40.7 mM, 16.0 h) is on record?
Answer: Its ring closure, yield after HPLC is 22%.

Question: And the “Ent. B Max Activity” value (CFTR [2]; Table 8)?
Answer: The value was “+++ (+++ is >60%)”.

Question: What about the EC50 (CFTR [2]; [4]) of the same compound?
Answer: Its EC50 is under 1000 nM.

Question: Which ring closure, yield after HPLC ([1]; from Cc1cccc(C)c1-c1cc(OC[C@@H](CC(C)(C)C)NCc2cnc(N)nc2)nc(NS(=O)(=O)c2cccc(C(=O)O)c2)n1, COMU/DIEA, DMF, 29.3 mM, 5.0 h) does the source give for `Cc1cccc(C)c1-c1cc2nc(n1)NS(=O)(=O)c1cccc(c1)C(=O)N(Cc1cnc(N)nc1)[C@H](CC(C)(C)C)CO2` [Compound 136, (11R)-12-[(2-Aminopyrimidin-5-yl)methyl]-6-(2,6-dimethylphenyl)-11-(2,2-dimethylpropyl)-9-oxa-2λ^6-thia-3,5,12,19-tetraazatricyclo[12.3.1.14,8]nonadeca-1(18),4,6,8(19),14,16-hexaene-2,2,13-trione] here?
Answer: Its ring closure, yield after HPLC is 33%.

Question: And the “Ent. B Max Activity” value (CFTR [2]; Table 8)?
Answer: Its value is “+++ (+++ is >60%)”.

Question: And the EC50 (CFTR [2]; [4])?
Answer: The EC50 was under 1000 nM.

Question: For `Cc1cccc(C)c1-c1cc2nc(n1)NS(=O)(=O)c1cccc(c1)C(=O)N(CCC(C)(C)C)[C@H](CC(C)(C)C)CO2` [Compound 138, (11R)-12-(3,3-Dimethylbutyl)-6-(2,6-dimethylphenyl)-11-(2,2-dimethylpropyl)-2,2-dioxo-9-oxa-2λ^6-thia-3,5,12,19-tetrazatricyclo[12.3.1.14,8]nonadeca-1(18),4(19),5,7,14,16-hexaen-13-one], which ring closure, yield after HPLC ([1]; from Cc1cccc(C)c1-c1cc(OC[C@@H](CC(C)(C)C)NCCC(C)(C)C)nc(NS(=O)(=O)c2cccc(C(=O)O)c2)n1, HATU/DIEA, DMF, 8.4 mM, 2.0 h) is on record?
Answer: Its ring closure, yield after HPLC is 39%.

Question: What about the “Ent. A Max Activity” value (CFTR [3]; Table 6) of the same compound?
Answer: Its value is “+++ (+++ is >60%)”.

Question: What about the EC50 (CFTR [3]; Table 6) of the same compound?
Answer: Its EC50 is under 1000 nM.

Question: What does the source list for `COC(=O)c1ccc(CCN2C(=O)c3cccc(c3)S(=O)(=O)Nc3nc(cc(-c4c(C)cccc4C)n3)OC[C@H]2CC(C)(C)C)cc1` [Compound 1081]?
Answer: ring closure, yield after HPLC ([1]; from COC(=O)c1ccc(CCN[C@@H](COc2cc(-c3c(C)cccc3C)nc(NS(=O)(=O)c3cccc(C(=O)O)c3)n2)CC(C)(C)C)cc1, HATU/DIEA, DMF, 25.0 °C, 16.0 h, 2 steps): 23%; Ent. B Max Activity (%) (CFTR [2]; Table 9): +++ (+++ is >600%); EC50 (CFTR [2]; Table 9): < 1000 nM
